These results are taken from patent publication US5137914A, “Sulfonylamino substituted bicyclo [2.2.1]heptane hydroxamic acid derivatives useful as pharmaceuticals” (Shionogi & Co., Ltd., priority 1990, dated 1992).

pEC50, pIC50: −log10 of the molar value.

The subject of data set [1] is rat washed platelets (thromboxane A2-receptor antagonistic activity). The data set can be described thus: Inhibitory Effect on Platelet Aggregation in Rat (washed platelets, collagen-induced, in vitro). The data set is classed as cell-based, rat (Sprague-Dowley). To be noted: 0.05 h, collagen inducer, 37° C., 3 minutes after inducer, Compounds Ia and Ib used as their sodium salts, read-out: Inhibition for Platelet Aggregation IC50. As to the method: (§1) From the abdominal artery of a male rat (Sprague-Dowley, 7 weeks old) was collected 10 ml of blood with a plastic syringe containing 1.5 ml of ACD (85 mM of sodium citrate, 70 mM of citric acid, 110 mM of glucose) and 20 μg of prostaglandin E1. The blood was placed in a plastic test tube, shaken moderately turning and centrifuged for 10 minutes at 160×g to give platelet rich plasma (PRP). To the prepared PRP was added apyrase (25 μg/ml) and the mixture was layered on 40% bovine serum albumin. The resulting mixture was centrifuged at 1200×g for 25 minutes. The suspension of the prepared platelet pellets in a small amount of a buffer (137 mM of NaCl, 2.7 mM of KCl, 1.0 mM MgCl2, 3.8 mM of NaH2 PO4, 3.8 mM of Hepes, 5.6 mM of glucose, 0.035% of bovine serum albumin, pH 7.35) was applied on 10 ml of Sepharose 2B column and eluted with such a buffer to prepare washed platelets.
(§2) The platelet aggregation reaction was measured by the aggregometer (NKK HEMA TRACER 1 MODEL PAT-6A.6M, Nikkou Bioscience).
In a measuring curvette was placed 245 μl of the washed platelets which concentration was adjusted to […] and set in the aggregometer. The adjusted washed platelets were stirred (1000 rpm) at 37° C. and 3.8 μl of 0.1M CaCl2 was added thereto. One minute later, 0.5 μl of a solution of a test compound in dimethylsulfoxide was added and 2 minutes later, 1 μl of collagen (Collagen reagent Horm®, HORMON-CHEMIE Munchen GMBH, final concentration […]) was added as an inducer for platelet aggregation. Platelet aggregation was monitored in terms of the increase and decrease in light transmission.
Concentration of 50% inhibition for platelet aggregation was calculated from the rate of aggregation. (The rate corresponds to light transmission of a sample which was measured at 3 minutes after adding the inducer for platelet aggregation, provided that light transmissions of the washed platelets and the buffer samples are taken as 0% and 100%, respectively.)

In data set [2] the test system is mice. As to the kind of experiment: Respiration inhibitory activity on intravenous injection to mice (index of partial agonistic activity). The format is in vivo. Particulars: intravenously injected to mice.
For data set [3], the system named is rat platelet. The data set can be described thus: Partial agonistic activity (activity to induce the shape change in rat platelet). The data set is classed as cell-based. To be noted: decrease in light transmission, rat washed platelets, 0.1M CaCl2, read-out: ED50 of partial agonistic activity (shape change). As to the method:
as §1, §2
Furthermore, partial agonistic activity (activity to induce the shape change in rat platelet) was determined according to the method used for the reaction of platelet aggregation. To the washed platelets was added 0.1M CaCl2 aqueous solution and 1 minute later, the decrease in light transmission caused by the test compounds was determined to estimate the activity.

On to `O=C(CCC/C=C\C[C@H]1[C@@H]2CC[C@@H](C2)[C@@H]1NS(=O)(=O)c1ccccc1)NO` [Ia, (1R,2S,3S,4S)-(5Z)-7-(3-phenylsulfonyl-aminobicyclo[2.2.1]hept-2-yl)-5-heptenohydroxamic acid], for which, in data set [1], the pIC50 is 7.92. The “partial agonistic activity by determination of respiration inhibitory activity” value in data set [2] is on record as “substantially no partial agonistic activity”.

In the case of `O=C(CCC/C=C\C[C@H]1[C@@H]2CC[C@@H](C2)[C@@H]1NS(=O)(=O)c1ccc(O)cc1)NO` [Ib, (1R,2S,3S,4S)-(5Z)-7-[3-(4-hydroxyphenylsulfonylamino)bicyclo[2.2.1]hept-2-yl]-5-heptenohydroxamic acid], the pIC50 in data set [1] is 8.00.

Turning to `O=C(CCC/C=C\[C@@H]1[C@H]2CC[C@H](C2)[C@H]1CNS(=O)(=O)c1ccc(Br)cc1)NO` [Ic, (1S, 2S, 3R, 4R)-(5Z)-6-[3-(4-bromophenylsulfonylaminomethyl)bicyclo[2.2.1]hept-2-yl]-5-hexenohydroxamic acid], in data set [1], the pIC50 was 7.70. Still for that read-out and setting: in the case of `CONC(=O)CCC/C=C\C[C@H]1[C@@H]2CC[C@@H](C2)[C@@H]1NS(=O)(=O)c1ccccc1` [Ie, (1R, 2S, 3S, 4S)-(5Z)-0-methyl-7-[3-phenylsulfonylaminobicyclo[2.2.1]hept-2-yl]-5-heptenohydroxamic acid] it was 7.22; in that of `CN(O)C(=O)CCC/C=C\C[C@H]1[C@@H]2CC[C@@H](C2)[C@@H]1NS(=O)(=O)c1ccccc1` [If, (1R, 2S, 3S, 4S)-(5Z) -N-methyl-7-(3-phenylsulfonylaminobicyclo[2.2.1]hept-2-yl)-5-heptenohydroxamic acid], 7.70.

With `Cc1ccc(S(=O)(=O)N[C@H]2[C@H]3CC[C@H](C3)[C@@H]2C/C=C\CCCC(=O)O)cc1` [Rf. Compd., reference compound], the pIC50 in data set [1] was 8.70. Further, in data set [3], the pEC50 is 9.00.

The term pIC50 denotes −log10 of the IC50, conventionally taken in molar units.
